Test results: PMC5084074 (ACS Central Science, 2016)
≈ marks a conversion by molar mass, not a printed value.

Assays:
[1] = rat models; cited from earlier work
[2] = DOSY NMR of saturated phenytoin with increasing polymer concentration; format: physicochemical; conditions: deuterated PBS, poly(NIPAm70-co-DMA30) concentration increased (up to 1000 μg/mL)
[3] = aqueous settings; cited from earlier work

Row | Structure (SMILES) | AUC over 24 h [1] [μg/mL-min] | translational diffusion coefficient (D0) of phenytoin [2] | solubility [3] [µg/mL]
1 | O=C1NC(c2ccccc2)(c2ccccc2)C(=O)N1COP(=O)(O)O [fosphenytoin] | 1860 ± 310 | – | –
2 | O=C1NC(=O)C(c2ccccc2)(c2ccccc2)N1 [phenytoin] | – | 3.72 ± 0.19 × 10^–10 m^2/s | ~30 (≈ 119 µM)
